Experimental data as given in patent publication US9168269B2, “Inhibitors of long and very long chain fatty acid metabolism as broad spectrum anti-virals” (THE TRUSTEES OF PRINCETON UNIVERSITY, priority 2010, dated 2015).
Values joined by “and” are separate entries in the source; they are usually repeats but may differ in a detail not shown here. Equal entries are not always repeated. Where two headings read alike, the source gives them in different places.

Experiments:
HCMV = assay: proposed combination of TOFA and triacsin C, virus replication; type: cell-based, human cytomegalovirus; details: for magnitude of the therapeutic effect: 10 μg/mL TOFA
HIV-1 = assay: proposed combination of TOFA and enfurtivide, HIV-1-infected C8166 cells; type: cell-based; details: for magnitude of the therapeutic effect: 10 μg/mL TOFA
Description: Non-limiting examples of assays that could be performed to assess the effect of a combination of an ACC inhibitor and an entry inhibitor on HIV-1 replication follow. Assays for TOFA-mediated antiviral activity using HIV-1-infected C8166 cells have been described in (WO 2009/023059). In each assay, various concentrations of TOFA can be combined with various concentrations of enfurtivide and assayed for their effect on virus replication. In one preferred embodiment, a physiological concentration of enfurtivide is held constant as the dose of TOFA is increased. Control cultures are treated with no drug, enfurtivide alone or the various concentrations of TOFA alone. Samples are taken at 24, 48, 72 and 96 hours after initiation of drug treatment. The antiviral effect of enfurtivide plus each concentration of TOFA is then compared to the activity of enfurtivide alone or the various concentrations of TOFA alone. Uptake of neutral red dye is used to determine the relative level of toxicity in duplicate cultures at each time a sample is harvested. […] At 10 μg/mL of TOFA, the magnitude of the therapeutic effect is increased from ^˜10-fold in the absence of enfurtivide to ^˜100-fold in its presence. […] Similar results are obtained for other entry inhibitors.

influenza A = type: cell-based; details: for magnitude of the therapeutic effect: 10 μg/mL TOFA
HCMV AD169 strain = assay: microbe, parasite or virus in culture; type: cell-based, human cytomegalovirus; details: 5 μg/ml
[1] = tested on: viral growth and/or replication; assay: proposed combination of TOFA and ELOVL inhibitor, virus replication; type: cell-based; details: presence of a therapeutically effective concentration of ELOVL inhibitor
[2] = tested on: HCV JFH1 strain derivative; assay: release of infectious HCV from Huh7.5 cells, TCID50 assay
Description: Huh7.5 cells were infected with a derivative of HCV JFH1 strain (MOI=0.1 TCID50/cell). Infected cells were maintained in medium containing 10% fetal calf serum plus DMSO (0 nM triacsin C) or triacsin C at the indicated concentrations. Media were harvested at 72 h and infectious virus was quantified by standard TCID50 assay on Huh7.5 cells.
Virus yield in the medium at 72 h after infection was determined.
Huh7.5 cells were infected a derivative of HCV JFH1 strain (MOI=0.1 TCID50/cell) Infected cells were maintained in medium containing 10% fetal calf serum plus DMSO (0 μg/ml TOFA) or TOFA at the indicated doses. Media were harvested at 72 h and infectious virus was quantified by standard TCID50 assay on Huh7.5 cells.
Huh7.5 cells which was infected with HCV and treated with indicated amounts of TOFA (FIG. 21).

CCCCCCCCCCCCCCOc1ccc(C(=O)O)o1 [TOFA]
concentration of TOFA required to produce a 10-fold reduction in HCMV replication (HCMV): ~10 μg/mL and < 5 μg/mL | magnitude of the therapeutic effect (HCMV; absence of triacsin C): ~10 fold | magnitude of the therapeutic effect (HCMV; presence of triacsin C): ~100 fold | magnitude of the therapeutic effect (HIV-1; absence of enfurtivide): ~10 fold | magnitude of the therapeutic effect (HIV-1; presence of enfurtivide): ~100 fold | concentration of TOFA required to produce a 10-fold reduction in HIV-1 replication (HIV-1; TOFA alone): ~10 μg/mL | concentration of TOFA required to produce a 10-fold reduction in HIV-1 replication (HIV-1; presence of a pharmacologically acceptable concentration of enfurtivide): < 5 μg/mL | magnitude of the therapeutic effect (influenza A; absence of oseltamivir): ~10 fold | magnitude of the therapeutic effect (influenza A; presence of oseltamivir): ~100 fold | concentration of TOFA required to produce a 10-fold reduction in influenza A replication (influenza A; TOFA alone): ~10 μg/mL | concentration of TOFA required to produce a 10-fold reduction in influenza A replication (influenza A; presence of a pharmacologically acceptable concentration of oseltamivir): < 5 μg/mL | host cell toxicity, neutral red dye assay (host cell; combined use of TOFA and enfurtivide): does not increase host cell toxicity | host cell toxicity, neutral red dye assay (host cell; combined use of TOFA and oseltamivir): does not increase host cell toxicity | host cell toxicity, neutral red dye assay (host cell; combined use of TOFA and triacsin C): does not increase host cell toxicity | inhibition of HCMV replication (HCMV AD169 strain): > 500 fold | reduction of the TOFA concentration required to reduce viral growth and/or replication by 10-fold [1]: ≥ 2 fold | inhibition of release of infectious HCV particles ([2]; 5 μg/ml): > 500 fold | inhibition of release of infectious HCV particles ([2]; 10 μg/ml): > 1000 fold
